Values of other authors in paper PMC7515950, “Physiologically based pharmacokinetic modeling to assess metabolic drug–drug interaction risks and inform the drug label for fedratinib” (Cancer Chemotherapy and Pharmacology, 2020).
Read-outs that look alike come from different tables or passages of the source.

Assays:
OATP1B1 = molecular target: T1, OATP1B1 (Homo sapiens, UniProt Q9Y6L6); details: read-out: Km of probe substrate, OATP1B1; from literature; ref [14]; cited from earlier work
T1 sequence (Q9Y6L6 1-691): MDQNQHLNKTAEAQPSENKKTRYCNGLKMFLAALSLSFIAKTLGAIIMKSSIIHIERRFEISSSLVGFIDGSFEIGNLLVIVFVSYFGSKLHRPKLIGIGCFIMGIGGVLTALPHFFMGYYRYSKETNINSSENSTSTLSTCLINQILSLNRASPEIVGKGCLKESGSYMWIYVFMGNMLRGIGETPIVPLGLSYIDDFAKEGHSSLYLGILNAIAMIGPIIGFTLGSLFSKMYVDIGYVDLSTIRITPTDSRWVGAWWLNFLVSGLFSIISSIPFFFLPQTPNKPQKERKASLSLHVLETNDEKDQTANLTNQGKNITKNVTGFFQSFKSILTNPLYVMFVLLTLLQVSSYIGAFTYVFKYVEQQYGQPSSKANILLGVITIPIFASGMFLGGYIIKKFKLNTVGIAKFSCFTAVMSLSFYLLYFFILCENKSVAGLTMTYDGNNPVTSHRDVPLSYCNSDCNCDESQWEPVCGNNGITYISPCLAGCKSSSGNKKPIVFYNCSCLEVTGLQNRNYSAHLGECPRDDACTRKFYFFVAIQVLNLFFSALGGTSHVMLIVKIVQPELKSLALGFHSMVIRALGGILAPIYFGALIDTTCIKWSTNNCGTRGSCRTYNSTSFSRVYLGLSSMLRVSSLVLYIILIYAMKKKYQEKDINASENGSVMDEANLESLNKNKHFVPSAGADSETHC

OCT2 = molecular target: T2, OCT2 (Homo sapiens, UniProt O15244); details: read-out: Km of probe substrate, OCT2; from literature; ref [12]; cited from earlier work
T2 sequence (O15244 1-555): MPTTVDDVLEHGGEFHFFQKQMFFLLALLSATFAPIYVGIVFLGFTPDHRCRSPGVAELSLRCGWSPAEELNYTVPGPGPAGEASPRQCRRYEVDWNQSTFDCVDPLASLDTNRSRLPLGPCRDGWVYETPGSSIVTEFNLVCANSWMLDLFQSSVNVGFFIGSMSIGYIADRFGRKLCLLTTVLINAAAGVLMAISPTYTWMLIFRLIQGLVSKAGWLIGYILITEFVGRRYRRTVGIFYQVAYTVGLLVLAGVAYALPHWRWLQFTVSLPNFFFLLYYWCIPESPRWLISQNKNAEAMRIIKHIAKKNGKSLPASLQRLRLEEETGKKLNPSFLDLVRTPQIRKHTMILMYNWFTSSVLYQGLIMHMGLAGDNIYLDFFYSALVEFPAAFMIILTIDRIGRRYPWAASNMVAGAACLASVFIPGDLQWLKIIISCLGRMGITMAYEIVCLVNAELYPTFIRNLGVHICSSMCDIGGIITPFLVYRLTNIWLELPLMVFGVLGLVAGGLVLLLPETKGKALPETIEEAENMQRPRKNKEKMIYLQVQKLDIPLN

[1] = cancer patients, observation, cited from earlier work; for AUC GM Ratio (90% CI) / Cmax GM Ratio (90% CI): cocktail substrate with vs without fedratinib 500 mg QD
Caco-2/TC7 = details: reference compound of the Simcyp permeability input, 7.4:7.4; cited from earlier work
OCT1 = molecular target: T3, OCT1 (Homo sapiens, UniProt O15245); set-up: method as in earlier work; details: from literature; ref [11]; read-out: Km of probe substrate, OCT1; cited from earlier work
T3 construct: expressed in transfected cells; host or cells: CHO^Fi-hOCT1
T3 sequence (O15245 1-554): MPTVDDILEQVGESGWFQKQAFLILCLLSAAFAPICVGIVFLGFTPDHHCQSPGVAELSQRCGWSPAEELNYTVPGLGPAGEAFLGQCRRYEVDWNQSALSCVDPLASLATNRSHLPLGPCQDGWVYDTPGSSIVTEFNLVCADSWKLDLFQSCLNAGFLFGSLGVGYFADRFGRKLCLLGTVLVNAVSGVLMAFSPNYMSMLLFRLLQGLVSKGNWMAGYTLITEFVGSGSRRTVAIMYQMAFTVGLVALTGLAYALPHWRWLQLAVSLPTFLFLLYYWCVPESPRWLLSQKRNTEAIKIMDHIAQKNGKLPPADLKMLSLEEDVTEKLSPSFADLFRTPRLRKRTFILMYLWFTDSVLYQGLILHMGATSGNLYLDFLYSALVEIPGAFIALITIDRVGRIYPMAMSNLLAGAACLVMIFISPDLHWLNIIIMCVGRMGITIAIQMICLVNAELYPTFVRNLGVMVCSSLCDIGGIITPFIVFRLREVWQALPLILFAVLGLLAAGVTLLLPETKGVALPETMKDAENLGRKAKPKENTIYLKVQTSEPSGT

P-gp = P-gp (Homo sapiens, UniProt P08183); details: read-out: Km of probe substrate, P-gp; from literature; ref [16]; cited from earlier work
Sequence of P-gp (P08183 whole entry): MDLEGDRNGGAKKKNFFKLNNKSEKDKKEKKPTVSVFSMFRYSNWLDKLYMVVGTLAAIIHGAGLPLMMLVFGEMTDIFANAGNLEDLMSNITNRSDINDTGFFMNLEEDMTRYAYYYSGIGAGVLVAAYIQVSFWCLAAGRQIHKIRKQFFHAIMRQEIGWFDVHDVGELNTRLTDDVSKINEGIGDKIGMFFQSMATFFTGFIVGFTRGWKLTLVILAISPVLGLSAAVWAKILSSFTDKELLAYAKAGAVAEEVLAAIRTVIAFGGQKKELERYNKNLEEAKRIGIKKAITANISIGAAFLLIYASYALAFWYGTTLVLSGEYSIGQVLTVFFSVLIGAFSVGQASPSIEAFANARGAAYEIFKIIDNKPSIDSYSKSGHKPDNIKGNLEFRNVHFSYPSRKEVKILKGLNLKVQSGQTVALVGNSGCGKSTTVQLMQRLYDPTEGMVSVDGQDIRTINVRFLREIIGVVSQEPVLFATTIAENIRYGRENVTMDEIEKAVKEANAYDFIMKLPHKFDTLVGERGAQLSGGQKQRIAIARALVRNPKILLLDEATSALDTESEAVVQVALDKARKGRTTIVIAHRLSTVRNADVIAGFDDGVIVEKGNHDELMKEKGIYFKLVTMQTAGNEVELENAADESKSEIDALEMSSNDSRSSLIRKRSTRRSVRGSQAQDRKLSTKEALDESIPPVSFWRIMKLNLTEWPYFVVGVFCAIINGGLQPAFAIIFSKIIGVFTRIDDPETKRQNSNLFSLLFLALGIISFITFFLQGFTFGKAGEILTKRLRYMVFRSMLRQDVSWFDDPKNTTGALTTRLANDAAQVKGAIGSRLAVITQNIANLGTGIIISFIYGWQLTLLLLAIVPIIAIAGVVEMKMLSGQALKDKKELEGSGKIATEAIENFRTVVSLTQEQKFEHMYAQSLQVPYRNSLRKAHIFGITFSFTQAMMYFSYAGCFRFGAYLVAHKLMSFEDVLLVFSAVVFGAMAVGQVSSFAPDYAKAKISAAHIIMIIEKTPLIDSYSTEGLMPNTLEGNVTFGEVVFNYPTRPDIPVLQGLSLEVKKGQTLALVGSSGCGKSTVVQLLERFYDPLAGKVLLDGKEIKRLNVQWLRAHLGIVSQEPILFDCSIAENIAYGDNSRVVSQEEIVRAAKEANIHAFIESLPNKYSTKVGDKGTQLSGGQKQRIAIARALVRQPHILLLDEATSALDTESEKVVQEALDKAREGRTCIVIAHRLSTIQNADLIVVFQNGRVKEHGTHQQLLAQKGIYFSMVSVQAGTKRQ

OATP1B3 = molecular target: T4, OATP1B3 (Homo sapiens, UniProt Q9NPD5); details: cited from earlier work
T4 sequence (Q9NPD5 1-702): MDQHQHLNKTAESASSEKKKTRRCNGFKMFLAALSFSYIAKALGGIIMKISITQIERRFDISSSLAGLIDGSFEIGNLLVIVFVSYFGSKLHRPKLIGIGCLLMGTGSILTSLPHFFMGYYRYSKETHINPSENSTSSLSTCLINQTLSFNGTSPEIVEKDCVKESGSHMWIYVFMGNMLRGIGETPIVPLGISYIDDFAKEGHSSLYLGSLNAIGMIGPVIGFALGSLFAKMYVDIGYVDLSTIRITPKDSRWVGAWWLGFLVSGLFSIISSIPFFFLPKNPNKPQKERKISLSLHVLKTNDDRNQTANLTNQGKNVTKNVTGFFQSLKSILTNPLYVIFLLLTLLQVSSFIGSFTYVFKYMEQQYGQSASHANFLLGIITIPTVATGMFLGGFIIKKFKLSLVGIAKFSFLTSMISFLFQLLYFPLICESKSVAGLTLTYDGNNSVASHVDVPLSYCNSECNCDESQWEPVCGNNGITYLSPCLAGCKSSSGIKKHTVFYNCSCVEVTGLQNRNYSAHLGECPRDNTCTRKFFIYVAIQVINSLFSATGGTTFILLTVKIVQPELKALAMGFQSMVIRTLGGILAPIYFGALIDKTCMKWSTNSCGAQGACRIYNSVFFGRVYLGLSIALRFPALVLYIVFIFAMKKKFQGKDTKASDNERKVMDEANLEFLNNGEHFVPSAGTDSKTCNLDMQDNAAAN

[2] = cocktail substrate + fedratinib 500 mg QD, GM
[3] = cocktail substrate + fedratinib 500 mg QD, Mean (SD)
[4] = cocktail substrate alone, Mean (SD)

Compound | AUC (AUCinf) [1, 2] [ng·h/mL] | Cmax [1, 2] [ng/mL] | AUC (AUCinf) [1, 3] | Cmax [1, 3] | AUC (AUCinf) ([1]; cocktail substrate alone, GM) [ng·h/mL] | AUC (AUCinf) [1, 4] | AUC GM Ratio (90% CI) [1] | Cmax GM Ratio (90% CI) [1] | also measured
C[C@]12CC[C@@H]3c4ccc(O)cc4CC[C@H]3[C@@H]1CC[C@@H]2O[C@@H]1O[C@H](C(=O)O)[C@@H](O)[C@H](O)[C@H]1O [Estradiol-17β-glucuronide] | – | – | – | – | – | – | – | – | Km (OATP1B1): 8.17 µM
CN(C)C(=N)N=C(N)N [Metformin] | – | – | – | – | – | – | – | – | Km (OCT2): 235 µM
COCCc1ccc(OCC(O)CNC(C)C)cc1 (stereo not drawn) [Metoprolol] | 1180 | 199 | 1460 (938) ng/mL·h | 221 (106) ng/mL | 731 | 880 (545) ng/mL·h | 1.77 (1.27–2.47) | 1.60 (1.25–2.05) | AUC GM Ratio (90% CI) ([1]; listed as metoprolol): 1.77; Cmax GM Ratio (90% CI) ([1]; listed as metoprolol): 1.60
Cc1ncc2n1-c1ccc(Cl)cc1C(c1ccccc1F)=NC2 [Midazolam] | 148 | 24.2 | 152 (38.6) ng/mL·h | 25.9 (8.75) ng/mL | 41.5 | 52.2 (37.9) ng/mL·h | 3.84 (2.62–5.63) | 1.82 (1.49–2.21) | Cmax ([1]; cocktail substrate alone (midazolam 2 mg, omeprazole 20 mg, metoprolol 100 mg once), GM): 13.4 ng/mL; Cmax ([1]; cocktail substrate alone (midazolam 2 mg, omeprazole 20 mg, metoprolol 100 mg once), Mean (SD)): 14.8 (7.56) ng/mL
COc1ccc2[nH]c([S+]([O-])Cc3ncc(C)c(OC)c3C)nc2c1 (stereo not drawn) [Omeprazole] | 4690 | 537 | 5950 (3560) ng/mL·h | 615 (286) ng/mL | 1590 | 2210 (1740) ng/mL·h | 2.82 (2.26–3.53) | 1.12 (0.81–1.53) | AUC GM Ratio (90% CI) ([1]; listed as omeprazole): 2.82; Cmax GM Ratio (90% CI) ([1]; listed as omeprazole): 1.12
CC(C)NCC(O)COc1cccc2ccccc12 (stereo not drawn) [Propranolol] | – | – | – | – | – | – | – | – | Reference Compound Value (PCaco-2) (Caco-2/TC7): 43.000 10E-06 cm/s
CC[N+](CC)(CC)CC [TEA] | – | – | – | – | – | – | – | – | Km (OCT1): 296 µM
C[C@H]1O[C@@H](O[C@H]2[C@@H](O)C[C@H](O[C@H]3[C@@H](O)C[C@H](O[C@H]4CC[C@@]5(C)[C@H](CC[C@@H]6[C@@H]5C[C@@H](O)[C@]5(C)[C@@H](C7=CC(=O)OC7)CC[C@]65O)C4)O[C@@H]3C)O[C@@H]2C)C[C@H](O)[C@@H]1O [digoxin] | – | – | – | – | – | – | – | – | Km (P-gp): 385 µM
CCK8 | – | – | – | – | – | – | – | – | Km (OATP1B3): 3.8 µM
